Measurements taken from patent publication US8809372B2, “Pyridine derivatives” (Endo Pharmaceuticals, Inc., priority 2011, dated 2014).

Experiments:
[1] = target: T1, human CYP17 in H295R adrenocortical carcinoma cells (Homo sapiens, UniProt P05093); test: Cell-based human CYP17 inhibition assay, H295R cells; settings: 16 hours, read-out: CYP17 (human H295R adrenal cells)
T1 construct: H295R Adrenocortical carcinoma cells [NCI-H295A, ATCC Number CRL-2128, American Type Culture Collection; host or cells: H295R adrenocortical carcinoma cells
T1 sequence (P05093 1-508): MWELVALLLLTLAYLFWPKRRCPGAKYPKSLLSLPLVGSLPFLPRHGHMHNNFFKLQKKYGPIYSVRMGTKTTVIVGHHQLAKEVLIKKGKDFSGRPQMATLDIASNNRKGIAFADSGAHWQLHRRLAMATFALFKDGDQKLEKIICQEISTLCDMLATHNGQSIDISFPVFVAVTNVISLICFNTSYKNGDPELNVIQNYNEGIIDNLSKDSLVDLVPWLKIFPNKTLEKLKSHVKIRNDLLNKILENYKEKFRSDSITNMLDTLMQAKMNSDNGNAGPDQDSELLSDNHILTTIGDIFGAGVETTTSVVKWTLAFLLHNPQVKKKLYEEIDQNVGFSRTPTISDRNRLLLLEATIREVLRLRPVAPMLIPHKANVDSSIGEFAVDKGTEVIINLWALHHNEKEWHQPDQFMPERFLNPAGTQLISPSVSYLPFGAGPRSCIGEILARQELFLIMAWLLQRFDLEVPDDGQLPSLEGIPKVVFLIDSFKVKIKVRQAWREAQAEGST
Method: Cell-Based Human CYP17 Inhibition Assay
1. H295R Adrenocortical Carcinoma Cells and Growth Media: The media for the H295R Adrenocortical carcinoma cells [NCI-H295A, ATCC Number CRL-2128, American Type Culture Collection, Manassas, Va., US] (500 mL) was a DMEM:F12 Mix 1:1 with 5% (2 mL) BD Nu Serum; 1% (5 mL) ITS+Premix [BD Biosciences] and 1% Penstrep. 2. LNCap-CYP17 Cells and Growth Media: Full length hCYP17a1 gene (NCBI Reference Sequence: NM_000102.3) was cloned in pcDNA3.1(+) vector between HindIII and XhoI site. The pcDNA3.1(+) vector contains the Neomycin resistance gene and was used for selection of stable cell line. The hCYP17a1 containing pcDNA3.1(+) was transfected into LNCap cells to create the LNCap-CYP17 cell line. The media for the LNCaP-CYP17 cells was RPMI 1640, 10% FBS, 1% PenStrep, Geneticin 400 μg/mL.
The H295R cells or LNCaP-hCYP17 cells were subcultured and 30,000 cells per well were seeded in a poly-d lysine plate and incubated overnight at 37° C. The next day the media was removed and 200 μL of fresh media with ^3H3-17α-hydroxy-pregnenolone (1:1000) was added. 50 μL of serially diluted compounds from a 5× plate (5 times the final desired concentration) was added. The working concentration range for active, new compounds started from a high concentration of 10 μM with 3-fold serial dilutions generating up to 10 concentrations. The serial dilution in the 100× plate (in DMSO) and the stamping of a 5× plate (in media) from the 100× plate were carried out using a TECAN liquid handling device.
The plates were incubated overnight (16 hours) at 37° C. After 16 hours, the media was removed (approximately 220 μL) and an equal amount of chloroform was added, mixed and incubated for 30 minutes at 4 degrees. The plate was centrifuged at 4000 rpm for 15 minutes at 4° C., following which the top aqueous layer was carefully removed and added into a new deep well plate. An equal volume of activated 5% charcoal was added, mixed and incubated for 30 minutes at 4° C. The plate was then centrifuged at 4000 rpm for 15 minutes at 4° C. and the top layer carefully separated, avoiding any charcoal contamination, and placed in a white, clear bottom plate (plate cat #3610, Corning Life Sciences). An equal volume of Microscint™ 40 was added and mixed well. Following the incubation for 30 minutes, readings for the radiotracer were taken using a Microbeta® trilux.

[2] = target: T2, rat CYP17 (rat testicular microsomes) (Rattus norvegicus, UniProt P11715); test: CYP17 inhibition assay in rat testicular microsomes; type: biochemical
T2 construct: Rat testis tissue was collected and disrupted with 30 strokes of a glass homogenizer; from tissue; host or cells: rat testis (microsomes)
T2 sequence (P11715 1-507): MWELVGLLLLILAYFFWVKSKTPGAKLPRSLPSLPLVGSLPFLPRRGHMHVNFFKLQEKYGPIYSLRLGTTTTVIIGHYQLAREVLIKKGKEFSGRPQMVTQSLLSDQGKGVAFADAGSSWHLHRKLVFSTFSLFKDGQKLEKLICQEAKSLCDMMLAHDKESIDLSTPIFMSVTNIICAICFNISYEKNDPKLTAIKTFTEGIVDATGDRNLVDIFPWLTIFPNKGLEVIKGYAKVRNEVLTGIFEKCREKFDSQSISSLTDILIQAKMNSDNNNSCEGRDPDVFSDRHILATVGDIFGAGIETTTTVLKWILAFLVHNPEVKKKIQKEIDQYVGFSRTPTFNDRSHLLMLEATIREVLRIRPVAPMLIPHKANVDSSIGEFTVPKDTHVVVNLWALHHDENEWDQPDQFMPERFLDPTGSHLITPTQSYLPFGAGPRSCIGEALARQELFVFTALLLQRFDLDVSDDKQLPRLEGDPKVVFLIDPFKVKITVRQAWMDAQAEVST
Method: CYP17 Inhibition Assay in Rat Testicular Microsomes (Rat CYP17) or Yeast Microsome Overexpressing Human CYP17
1. NADPH (Sigma): A working stock was prepared by adding 25 μL of 6.5 mM NADPH in each tube. The final concentration of NADPH used in the assay was 325 μM.
2. Potassium Phosphate Buffer: One molar (1M) solutions of K2HPO4 and KH2PO4 were prepared. Eight mL of the 1 M KH2PO4 and 1.98 mL of the 1 M K2HPO4 were combined and the pH was adjusted to 7.4.
3. ^3H3-17α-hydroxypregnenolone (American Radiolabeled Chemicals, Inc., stock 1 μCi/μL): A 1:1 dilution of ^3H3-17α-hydroxypregnenolone in ethanol was prepared by combining 100 μL ^3H3-17α-hydroxypregnenolone+100 μL ethanol for one complete 96 well plate. For the reaction, 2 μL of the diluted ^3H3-17α-hydroxypregnenolone was added in each tube, i.e., 1 μCi/reaction. 4. Microsome Isolation Buffer: The microsome isolation buffer was prepared by combining 250 mM Sucrose, 5 mM EDTA, 10 mM Tris HCl, 4 mM DTT, and adjusting to pH 7.4. 5. TEG Buffer: The TEG buffer was prepared by combining 50 mM Tris HCl, 1 mM EDTA, and 20% Glycerol. 6. Rat Testicular Microsomes: Rat testis tissue was collected and disrupted with 30 strokes of a glass homogenizer on ice with 250 μL of microsome isolation buffer, followed by centrifugation at 10,000 g for 10 minutes at 4° C. The supernatant was collected and centrifuged at 100,000 g for 45 minutes at 4° C. The pellet was dissolved in TEG Buffer and the protein was quantified. The homogenized microsome samples were then frozen at −80° C. • 7. Yeast Microsomes which overexpress the human CYP17 enzyme were obtained from Premas Biotech, India.
Potassium phosphate buffer (470 μL) was prepared as described above and was added to each well of a deep well plate. The test compound was diluted using a TECAN liquid handler and 5 μL of diluted compound was transferred to each well (96 deep well/1 mL). A solution (25 μL) of 6.5 mM NADPH was added (final concentration of 325 μM in the assay). ^3H3-17α-hydroxypregnenolone (2 μL of the working stock) was added to each tube. The plates were then pre-incubated for 15 minutes at 37° C. Following the pre-incubation, either 5 μL rat testicular microsomes (150-160 μg) or 5 μL of yeast microsomes expressing human CYP17 (1.7 pmol), was added. Incubation was at 37° C. for 60 minutes in the presence of oxygen. The plates were then placed in ice and chloroform (500 μL) was added, mixed well and incubated at 4° C. for 20 minutes. The plates were then centrifuged at 1000 rpm for 15 minutes at 4° C.
A portion (300 μL) of the aqueous solution was collected and mixed with a 5% aqueous suspension of activated charcoal (300 μL). The plates were then incubated at 4° C. for 30 minutes, after which the plates were centrifuged at 1000 rpm for 15 minutes at 4° C. From this, 125 μL of the aqueous solution was collected and plated into a 96 well plate. Microscint™ 40 [125 μL, Perkin-Elmer; containing a mixture of a polymer based on alkylphenolethoxylate (20-40%), diethanolamine-phosphoric acid ester ammonium salt (10-20%), sodium dioctyl sulphosuccinate (2.5-10%), triethyl phosphate (2.5-10%), 3,6-dimethyl-4-octyne-3,6-diol (≦2.5%), a polymer based on nonylphenolethoxylate (≦2.5%), diisopropyl naphthalene isomers (40-60%), 2,5-diphenyloxazole (≦2.5%), and 9,10-dimethylanthracene] was added and mixed well. After 30 minutes of incubation, the samples were analyzed with a MicroBeta® Trilux microplate liquid scintillation counter and luminometer (Perkin-Elmer).

Row | Compound | IC50 [1] | IC50 [2]
1 | CC(O)(c1ccncc1)c1cnc(-c2ccc(F)c(Cl)c2)s1 (stereo not shown) [Example 46, 1-(2-(3-chloro-4-fluorophenyl)thiazol-5-yl)-1-(pyridin-4-yl)ethanol] | < 50 nM | < 50 nM
2 | CC(O)(c1ccncc1)c1cnc(-c2ccc(Cl)c(C#N)c2)s1 (stereo not shown) [Example 42, 2-chloro-5-(5-(1-hydroxy-1-(pyridin-4-yl)ethyl)thiazol-2-yl)benzonitrile] | < 50 nM | < 50 nM
3 | CC(O)(c1ccncc1)c1cnc(-c2ccc(Cl)cc2)s1 (stereo not shown) [Example 28, 1-(2-(4-Chlorophenyl)thiazol-5-yl)-1-(pyridin-4-yl)ethanol] | < 50 nM | < 50 nM
4 | CC(O)(c1ccncc1)c1cnc(-c2ccc(Cl)c(C(F)(F)F)c2)s1 (stereo not shown) [Example 39, 1-(2-(4-chloro-3-(trifluoromethyl)phenyl)thiazol-5-yl)-1-(pyridin-4-yl)ethanol] | 50 to 200 nM | < 50 nM
5 | CC(O)(c1ccncc1)c1cnc(-c2ccc(F)c(C#N)c2)s1 (stereo not shown) [Example 40, 2-fluoro-5-(5-(1-hydroxy-1-(pyridin-4-yl)ethyl)thiazol-2-yl)benzonitrile] | < 50 nM | < 50 nM
6 | CC(O)(c1ccncc1)c1cc(-c2ccc(F)cc2)no1 (stereo not shown) [Example 32, 1-[3-(4-Fluoro-phenyl)-isoxazol-5-yl]-1-pyridin-4-yl-ethanol] | 50 to 200 nM | < 50 nM
7 | CC(C)C(O)(c1ccncc1)c1cnc(-c2ccc(F)cc2)s1 (stereo not shown) [Example 33, 1-[2-(4-Fluoro-phenyl)-thiazol-5-yl]-2-methyl-1-pyridin-4-yl-propan-1-ol] | < 50 nM | < 50 nM
8 | CCC(O)(c1ccncc1)c1ncc(-c2ccc(F)cc2)s1 (stereo not shown) [Example 13, 1-(5-(4-Fluorophenyl)thiazol-2-yl)-1-(pyridin-4-yl)propan-1-ol] | 201 to 10000 nM | < 50 nM
9 | CC(O)(c1ccncc1)c1cnc(-c2ccc(C#N)c(Cl)c2)s1 (stereo not shown) [Example 38, 2-chloro-4-(5-(1-hydroxy-1-(pyridin-4-yl)ethyl)thiazol-2-yl)benzonitrile] | 50 to 200 nM | < 50 nM
10 | CCC(O)(c1ccncc1)c1nnc(-c2ccc(F)cc2)s1 (stereo not shown) [Example 21, 1-(5-(4-fluorophenyl)-1,3,4-thiadiazol-2-yl)-1-(pyridin-4-yl)propan-1-ol] | 201 to 10000 nM | < 50 nM

Next, values leading:

Row | IC50 [1] | IC50 [2] | Compound
11 | 201 to 10000 nM | < 50 nM | CC(O)(c1ccncc1)c1cc(-c2ccc(F)cc2)n[nH]1 (stereo not shown) [Example 49, 1-(3-(4-fluorophenyl)-1H-pyrazol-5-yl)-1-(pyridin-4-yl)ethanol]
12 | 201 to 10000 nM | < 50 nM | CC(O)(c1ccncc1)c1cnc(-c2cncnc2)s1 (stereo not shown) [Example 64, 1-(pyridin-4-yl)-1-(2-(pyrimidin-5-yl)thiazol-5-yl)ethanol]
13 | 201 to 10000 nM | 50 to 200 nM | CCCCC(=O)c1ccc(-c2ccc(C(C)(O)c3ccncc3)nc2)cn1 (stereo not shown) [Example 62, 1-(6′-(1-hydroxy-1-(pyridin-4-yl)ethyl)-[3,3′-bipyridin]-6-yl)pentan-1-one]
14 | 50 to 200 nM | < 50 nM | CC(N)(c1ccncc1)c1cnc(-c2ccc(F)cc2)s1 (stereo not shown) [Example 68, 1-(2-(4-Fluorophenyl)thiazol-5-yl)-1-(pyridin-4-yl)ethanamine]
15 | 201 to 10000 nM | 50 to 200 nM | OC1(c2cnc(-c3ccc(F)cc3)s2)CCc2cnccc21 (stereo not shown) [Example 59, 5-(2-(4-fluorophenyl)thiazol-5-yl)-6,7-dihydro-5H-cyclopenta[c]pyridin-5-ol]
16 | 50 to 200 nM | < 50 nM | CC(O)(c1ccncc1)c1ncc(-c2ccc(F)cc2)s1 (single isomer, unassigned; (+)) [Example 55, (+)-1-(5-(4-fluorophenyl)thiazol-2-yl)-1-(pyridin-4-yl)ethanol]
17 | 201 to 10000 nM | 50 to 200 nM | CC(=O)NC(C)(c1ccncc1)c1cnc(-c2ccc(F)cc2)s1 (stereo not shown) [Example 69, N-(1-(2-(4-Fluorophenyl)thiazol-5-yl)-1-(pyridin-4-yl)ethyl)acetamide]
